What was measured:
[1] = system: P388/S tumor cells; assay: In vitro antitumor assay, growth inhibition of P388/S tumor cells (72 h, Coulter counter); format: cell-based; details: Mus musculus, 37° C., 5% CO2, 72 hours, read-out: concentration (IC50) causing 50% inhibition on P388/S tumor cell growth
Experimental: (§1) In vitro activity tests were performed for evaluating the inhibitory activities of the antitumor substance BE-13793C on mouse tumor cells. In the in vitro antitumor assay using P388 tumor cells, the test substance was first dissolved in dimethyl sulfoxide and the obtained solution was serially diluted with a cell culture medium containing 20% of dimethyl sulfoxide (20% v/v DMSO-RPMI-1640 medium). Then, 2 μl of the dilution was added to 200 μl of a cell culture medium (10% v/v fetal calf serum-RPMI-1640 medium) containing 2×10^4 or 3×10^4 tumor cells. Next, each mixture was incubated at 37° C. under 5% CO2 for 72 hours. The viable cells were then counted with a Coulter counter. The result was compared with the control data. […] The concentration (IC50) of the antitumor substance BE-13793C causing 50% inhibition on P388/S tumor cell growth was 0.7 μM, while that on P388/V cell growth was 0.7 μM.
(§2) The P388/S cells are commonly employed mouse leukemia cells while the P388/V cells are a strain of P388 leukemia cells which have acquired resistance to the anticancer agent vincristine.

[2] = system: P388/V cells; assay: In vitro antitumor assay, growth inhibition of vincristine-resistant P388/V cells; format: cell-based; details: Mus musculus, 37° C., 5% CO2, 72 hours, read-out: concentration (IC50) causing 50% inhibition on P388/V cell growth
Experimental: as §1, §2

[3] = system: P388/A cells; assay: Growth inhibition of adriamycin-resistant P388/A cells; format: cell-based; details: Mus musculus, read-out: 50% inhibitory concentration (IC50) on growth of P388/A cells
Experimental: as §1
Furthermore, the antitumor substance BE-13793C inhibited the growth of P388/A cells, which had acquired resistance to the anticancer agent adriamycin, and the 50% inhibitory concentration (IC50) thereof was 1.0 μM.

[4] = system: Ehrlich ascites cancer; assay: Effect on Ehrlich ascites cancer transplanted in mice (survival); format: in vivo, mouse; details: once a day 1st to 10th day; for MST (mean survival time): female ICR mice, control 13.1 day; for MST % T/C ((treated MST/control MST) × 100): ≥125 = marked antitumor effect
Text: In this assay, 10^6 (lethal dose) tumor cells per mouse were intraperitoneally administered. Then the test substance was serially diluted and intraperitoneally administered.
^1 Inoculum: 10^6 Ehrich ascites cancer cells, intraperitoneal.
^2 Host: Female ICR mice.
^3 Treatment schedule: BE13793C was intraperitoneally administered
once a day from the 1st to the 10th day.
^4 MST: Mean survival time (in days).
^5 % T/C: (Treated MST/control MST) × 100.
^6 Criteria: When % T/C ≥ 125, the test compound was considere
to produce a marked antitumor effect at the particular dose.

[5] = system: female ICR mice; assay: Acute toxicity on female ICR mice; format: in vivo, mouse; details: 100 mg/kg i.p. once, on the 5th day
[6] = Solubility; format: physicochemical
[7] = Acidity/neutrality/basicity; format: physicochemical

O=C1NC(=O)c2c1c1c3cccc(O)c3[nH]c1c1[nH]c3c(O)cccc3c21 [BE-13793C]
IC50 [1]: 700 nM | IC50 [2]: 700 nM | IC50 [3]: 1000 nM | MST (mean survival time) ([4]; 8 mg/kg/injection i.p.): 16.0 days | MST % T/C ((treated MST/control MST) × 100) ([4]; 8 mg/kg/injection i.p.): 122% | MST (mean survival time) ([4]; 20 mg/kg/injection i.p.): 26.4 days | MST % T/C ((treated MST/control MST) × 100) ([4]; 20 mg/kg/injection i.p.): 202% | MST (mean survival time) ([4]; 50 mg/kg/injection i.p.): 28.6 days | MST % T/C ((treated MST/control MST) × 100) ([4]; 50 mg/kg/injection i.p.): 218% | death (acute toxicity) [5]: no death was found | solubility in dimethyl sulfoxide ([6]; dimethyl sulfoxide): highly soluble | solubility in methanol ([6]; methanol): soluble | solubility in tetrahydrofuran ([6]; tetrahydrofuran): highly soluble | solubility in water ([6]; water): hardly soluble | Acidity/neutrality/basicity [7]: acidic

From patent US5290698A, “Streptoverticillium ferm P-10489 which produces antitumor agent BE-13793C” (Banyu Pharmaceutical Co., Ltd., priority 1989, dated 1994)
